The text below walks through data of patent US11505543B2, “4-oxo-3,4-dihydroquinazoline compounds as inhibitors of human immunodeficiency virus replication” (VIIV HEALTHCARE UK (NO.5) LIMITED, priority 2018, dated 2022).

The nature of series [1]: Compound cytotoxicity, XTT-based colorimetric assay. Type of series: cell-based. To be noted: human, uninfected MT2 cells, day 4, XTT. On the procedure:
Compound cytotoxicity and the corresponding CC50 values were determined using the same protocol as described in the antiviral assay except that uninfected cells were used. Cytotoxicity was assessed on day 4 in uninfected MT2 cells by using a XTT (2,3-bis[2-Methoxy-4-nitro-5-sulfophenyl]-2H-tetrazolium-5-carboxyanilide inner salt)-based colorimetric assay (Sigma-Aldrich, St Louis, Mo.).
A general note: Formazan colour is commonly taken as a measure of viable cells.

For series [2], the system named is recombinant NL4-3 virus (nef section replaced with Renilla luciferase gene) in MT-2 cells. As to the kind of experiment: HIV cell culture assay (antiviral activity, luciferase readout). To be noted: Renilla, NL43, MT-2 cells infected for 4-5 days with recombinant NL4-3 Renilla luciferase virus, serial dilutions of compound. In kind it is cell-based. On the procedure:
HIV cell culture assay—MT-2 cells, 293T cells and the proviral DNA clone of NL4-3 virus were obtained from the NIH AIDS Research and Reference Reagent Program. MT-2 cells were propagated in RPMI 1640 media supplemented with 10% heat inactivated fetal bovine serum (FBS), 100 μg/ml penicillin G and up to 100 units/mL streptomycin. The 293T cells were propagated in DMEM media supplemented with 10% heat inactivated FBS, 100 μg/mL penicillin G and 100 μg/mL streptomycin. A recombinant NL4-3 proviral clone, in which a section of the nef gene was replaced with the Renilla luciferase gene, was used to make the reference virus used in these studies. The recombinant virus was prepared through transfection of the recombinant NL4-3 proviral clone into 293T cells using Transit-293 Transfection Reagent from Mirus Bio LLC (Madison, Wis.). Supernatent was harvested after 2-3 days and the amount of virus present was titered in MT-2 cells using luciferase enzyme activity as a marker by measuring luciferase enzyme activity. Luciferase was quantitated using the EnduRen Live Cell Substrate from Promega (Madison, Wis.). Antiviral activities of compounds toward the recombinant virus were quantified by measuring luciferase activity in MT-2 cells infected for 4-5 days with the recombinant virus in the presence of serial dilutions of the compound.
The 50% effective concentration (EC50) was calculated by using the exponential form of the median effect equation where (Fa)=1/[1+(ED50/drug conc.)^m] (Johnson VA, Byington RT. Infectivity Assay. In Techniques in HIV Research. ed. Aldovini A, Walker BD. 71-76. New York: Stockton Press. 1990). Curve fitting and analysis were performed with ActivityBase XE Runner software version 9.1.0.4 using model 203 (ID Business Solutions, LTD, Guildford, UK).

Each structure is given as a SMILES string.

The term CC50 denotes the concentration that lowers cell viability or growth by half. A high value points to better tolerance by the cells. Usually EC50 stands for the concentration needed to bring the measured effect to its halfway point. The compound `Cn1nc(NS(C)(=O)=O)c2c(Cl)ccc(-n3c([C@H](Cc4cc(F)cc(F)c4)NC(=O)Cn4nc(C(F)F)c5c4C(F)(F)[C@@H]4C[C@H]54)nc4cc(-c5ccc(F)c(F)c5)ccc4c3=O)c21` [Example 173, N-((S)-1-(3-(4-chloro-1-methyl-3-(methylsulfonamido)-1H-indazol-7-yl)-7-(3,4-difluorophenyl)-4-oxo-3,4-dihydroquinazolin-2-yl)-2-(3,5-difluorophenyl)ethyl)-2-((3bS,4aR)-3-(difluoromethyl)-5,5-difluoro-3b,4,4a,5-tetrahydro-1H-cyclopropa[3,4]cyclopenta[1,2-c]pyrazol-1-yl)acetamide] returned a CC50 at 4 day in series [1] of more than 500 nM. Moreover, the concentration giving a half-maximal response (EC50) in series [2] amounted to 0.68 nM.
In series [1], `O=C(Cn1nc(C(F)F)c2c1C(F)(F)[C@@H]1C[C@H]21)N[C@@H](Cc1cc(F)cc(F)c1)c1nc2cc(-c3ccc(Cl)cc3Cl)ccc2c(=O)n1-c1ccc(S(=O)(=O)N2CCOCC2)cc1` [Example 80, N-((S)-1-(7-(2,4-dichlorophenyl)-3-(4-(morpholinosulfonyl)phenyl)-4-oxo-3,4-dihydroquinazolin-2-yl)-2-(3,5-difluorophenyl)ethyl)-2-((3bS,4aR)-3-(difluoromethyl)-5,5-difluoro-3b,4,4a,5-tetrahydro-1H-cyclopropa[3,4]cyclopenta[1,2-c]pyrazol-1-yl)acetamide] displayed a CC50 at 4 day of more than 1000 nM. In addition, the EC50 in series [2] stood at 8 nM.
Compound `Cn1nc(NS(C)(=O)=O)c2c(Cl)ccc(-n3c([C@H](Cc4cc(F)cc(F)c4)NC(=O)Cn4nc(C(F)F)c5c4C(F)(F)[C@@H]4C[C@H]54)nc4cc(-c5ccc(F)cc5F)ccc4c3=O)c21` [Example 187, N-((S)-1-(3-(4-chloro-1-methyl-3-(methylsulfonamido)-1H-indazol-7-yl)-7-(2,4-difluorophenyl)-4-oxo-3,4-dihydroquinazolin-2-yl)-2-(3,5-difluorophenyl)ethyl)-2-((3bS,4aR)-3-(difluoromethyl)-5,5-difluoro-3b,4,4a,5-tetrahydro-1H-cyclopropa[3,4]cyclopenta[1,2-c]pyrazol-1-yl)acetamide] returned a CC50 at 4 day in series [1] of more than 1000 nM. Moreover, in series [2], the EC50 was determined as 0.28 nM.
Taken in the same sequence, the figures for `Cc1cc(-c2ccc3c(=O)n(-c4ccc(Cl)c5c(NS(C)(=O)=O)nn(C)c45)c([C@H](Cc4cc(F)cc(F)c4)NC(=O)Cn4nc(C(F)F)c5c4C(F)(F)[C@@H]4C[C@H]54)nc3c2)ccc1Cl` (atropisomer, axis not shown; (aR)) [Example 31, N-((S)-1-(3-(4-chloro-1-methyl-3-(methylsulfonamido)-1H-indazol-7-yl)-7-(4-chloro-3-methylphenyl)-4-oxo-3,4-dihydroquinazolin-2-yl)-2-(3,5-difluorophenyl)ethyl)-2-((3bS,4aR)-3-(difluoromethyl)-5,5-difluoro-3b,4,4a,5-tetrahydro-1H-cyclopropa[3,4]cyclopenta[1,2-c]pyrazol-1-yl)acetamide] were more than 1000 nM and 4.7 nM.
On the same counts, the results for `O=C(Cn1ccc(C2CC2)n1)N[C@@H](Cc1cc(F)cc(F)c1)c1nc2cc(-c3ccccc3-c3ccccc3)ccc2c(=O)n1-c1ccc(S(=O)(=O)N2CCOCC2)cc1` [Example 146, (S)-N-(1-(7-([1,1′-biphenyl]-2-yl)-3-(4-(morpholinosulfonyl)phenyl)-4-oxo-3,4-dihydroquinazolin-2-yl)-2-(3,5-difluorophenyl)ethyl)-2-(3-cyclopropyl-1H-pyrazol-1-yl)acetamide] are more than 500 nM and 69 nM.
On the same counts, the results for `Cn1nc(NS(C)(=O)=O)c2c(Cl)ccc(-n3c([C@H](Cc4cc(F)cc(F)c4)NC(=O)Cn4nc(C(F)F)c5c4C(F)(F)[C@@H]4C[C@H]54)nc4cc(-c5c(F)cc(F)cc5F)ccc4c3=O)c21` [Example 172, N-((S)-1-(3-(4-chloro-1-methyl-3-(methylsulfonamido)-1H-indazol-7-yl)-4-oxo-7-(2,4,6-trifluorophenyl)-3,4-dihydroquinazolin-2-yl)-2-(3,5-difluorophenyl)ethyl)-2-((3bS,4aR)-3-(difluoromethyl)-5,5-difluoro-3b,4,4a,5-tetrahydro-1H-cyclopropa[3,4]cyclopenta[1,2-c]pyrazol-1-yl)acetamide] are more than 500 nM and 0.25 nM.
For the compound `Cc1nccnc1-c1ccc2c(=O)n(-c3ccc(Cl)c4c(NS(=O)(=O)C5CC5)nn(CC(F)F)c34)c([C@H](Cc3cc(F)cc(F)c3)NC(=O)Cn3nc(C(F)F)cc3C(F)F)nc2c1` [Example 191, (S)-2-(3,5-bis(difluoromethyl)-1H-pyrazol-1-yl)-N-(1-(3-(4-chloro-3-(cyclopropanesulfonamido)-1-(2,2-difluoroethyl)-1H-indazol-7-yl)-7-(3-methylpyrazin-2-yl)-4-oxo-3,4-dihydroquinazolin-2-yl)-2-(3,5-difluorophenyl)ethyl)acetamide], the 50% cytotoxic concentration (CC50) at 4 day in series [1] is more than 500 nM. In series [2], the EC50 was 1.5 nM.
Turning to `Cn1nc(NS(C)(=O)=O)c2c(Cl)ccc(-n3c([C@H](Cc4cc(F)cc(F)c4)NC(=O)Cn4nc(C(F)F)c5c4C(F)(F)[C@@H]4C[C@H]54)nc4cc(-c5cc(F)cc(F)c5)ccc4c3=O)c21` (atropisomer, axis not shown; (aR)) [Example 103, N-((S)-1-(3-(4-chloro-1-methyl-3-(methylsulfonamido)-1H-indazol-7-yl)-7-(3,5-difluorophenyl)-4-oxo-3,4-dihydroquinazolin-2-yl)-2-(3,5-difluorophenyl)ethyl)-2-((3bS,4aR)-3-(difluoromethyl)-5,5-difluoro-3b,4,4a,5-tetrahydro-1H-cyclopropa[3,4]cyclopenta[1,2-c]pyrazol-1-yl)acetamide], in series [1], the CC50 at 4 day was more than 1000 nM. Moreover, the EC50 in series [2] was found to be 0.88 nM.
Taken in the same sequence, the figures for `Cn1nc(NS(C)(=O)=O)c2c(Cl)ccc(-n3c([C@H](Cc4cc(F)cc(F)c4)NC(=O)Cn4nc(C(F)F)c5c4C(F)(F)[C@@H]4C[C@H]54)nc4cc(-c5ccc(F)c(C#N)c5F)ccc4c3=O)c21` [Example 170, N-((S)-1-(3-(4-chloro-1-methyl-3-(methylsulfonamido)-1H-indazol-7-yl)-7-(3-cyano-2,4-difluorophenyl)-4-oxo-3,4-dihydroquinazolin-2-yl)-2-(3,5-difluorophenyl)ethyl)-2-((3bS,4aR)-3-(difluoromethyl)-5,5-difluoro-3b,4,4a,5-tetrahydro-1H-cyclopropa[3,4]cyclopenta[1,2-c]pyrazol-1-yl)acetamide] were more than 500 nM and 0.58 nM.
Taken in the same sequence, the figures for `Cn1nc(NS(C)(=O)=O)c2c(Cl)ccc(-n3c([C@H](Cc4cc(F)cc(F)c4)NC(=O)Cn4nc(C(F)F)c5c4C(F)(F)[C@@H]4C[C@H]54)nc4cc(-c5ccc(F)cc5)ccc4c3=O)c21` [Example 193, N-((S)-1-(3-(4-chloro-1-methyl-3-(methylsulfonamido)-1H-indazol-7-yl)-7-(4-fluorophenyl)-4-oxo-3,4-dihydroquinazolin-2-yl)-2-(3,5-difluorophenyl)ethyl)-2-((3bS,4aR)-3-(difluoromethyl)-5,5-difluoro-3b,4,4a,5-tetrahydro-1H-cyclopropa[3,4]cyclopenta[1,2-c]pyrazol-1-yl)acetamide] were more than 1000 nM and 0.95 nM.
As for `Cc1cc(F)ccc1-c1ccc2c(=O)n(-c3ccc(S(=O)(=O)N4CCOCC4)cc3)c([C@H](Cc3cc(F)cc(F)c3)NC(=O)Cn3nc(C(F)F)c4c3C(F)(F)[C@@H]3C[C@H]43)nc2c1` [Example 150, 2-((3bS,4aR)-3-(difluoromethyl)-5,5-difluoro-3b,4,4a,5-tetrahydro-1H-cyclopropa[3,4]cyclopenta[1,2-c]pyrazol-1-yl)-N-((S)-2-(3,5-difluorophenyl)-1-(7-(4-fluoro-2-methylphenyl)-3-(4-(morpholinosulfonyl)phenyl)-4-oxo-3,4-dihydroquinazolin-2-yl)ethyl)acetamide], the cytotoxic concentration (CC50) at 4 day in series [1] was more than 500 nM. For the same compound, the concentration for a half-maximal effect (EC50) in series [2] came out at 11 nM.
On the same counts, the results for `O=C(Cn1nc(C(F)F)cc1C(F)F)N[C@@H](Cc1cc(F)cc(F)c1)c1nc2cc(-c3ccccn3)ccc2c(=O)n1-c1ccc(Cl)c2c(NS(=O)(=O)C3CC3)nn(CC(F)F)c12` [Example 190, (S)-2-(3,5-bis(difluoromethyl)-1H-pyrazol-1-yl)-N-(1-(3-(4-chloro-3-(cyclopropanesulfonamido)-1-(2,2-difluoroethyl)-1H-indazol-7-yl)-4-oxo-7-(pyridin-2-yl)-3,4-dihydroquinazolin-2-yl)-2-(3,5-difluorophenyl)ethyl)acetamide] are more than 500 nM and 2.1 nM.
